Legend:
α1Q241L mutated GABAARs = α1Q241L mutated GABAARs (UniProt P18507+P47870+P62813, Q268L); assay: GABA current in N2a cells transfected with α1Q241L, β2 and γ2 subunits; type: cell-based; details: 10 μM GABA; AlloP 50 nM, MQ-221 10 μM
NMDAR = assay: NMDA-induced whole-cell currents in cultured hippocampal neurons (voltage clamp); type: cell-based, rat; details: 10 μM NMDA

Chain of α1Q241L mutated GABAARs (P62813 28-455 Q268L): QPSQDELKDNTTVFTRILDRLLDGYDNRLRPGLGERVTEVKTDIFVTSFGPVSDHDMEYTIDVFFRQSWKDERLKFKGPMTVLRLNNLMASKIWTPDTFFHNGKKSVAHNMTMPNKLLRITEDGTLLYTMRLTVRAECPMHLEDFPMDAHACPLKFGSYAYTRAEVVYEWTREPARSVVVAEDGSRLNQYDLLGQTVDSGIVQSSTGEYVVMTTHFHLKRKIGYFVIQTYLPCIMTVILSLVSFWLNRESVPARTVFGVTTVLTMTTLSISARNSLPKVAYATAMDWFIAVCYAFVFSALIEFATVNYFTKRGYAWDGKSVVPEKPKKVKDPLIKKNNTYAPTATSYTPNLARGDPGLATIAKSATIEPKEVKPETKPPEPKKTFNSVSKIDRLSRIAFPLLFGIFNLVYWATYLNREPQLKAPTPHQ
Chain of α1Q241L mutated GABAARs (P47870 25-512 limits assumed): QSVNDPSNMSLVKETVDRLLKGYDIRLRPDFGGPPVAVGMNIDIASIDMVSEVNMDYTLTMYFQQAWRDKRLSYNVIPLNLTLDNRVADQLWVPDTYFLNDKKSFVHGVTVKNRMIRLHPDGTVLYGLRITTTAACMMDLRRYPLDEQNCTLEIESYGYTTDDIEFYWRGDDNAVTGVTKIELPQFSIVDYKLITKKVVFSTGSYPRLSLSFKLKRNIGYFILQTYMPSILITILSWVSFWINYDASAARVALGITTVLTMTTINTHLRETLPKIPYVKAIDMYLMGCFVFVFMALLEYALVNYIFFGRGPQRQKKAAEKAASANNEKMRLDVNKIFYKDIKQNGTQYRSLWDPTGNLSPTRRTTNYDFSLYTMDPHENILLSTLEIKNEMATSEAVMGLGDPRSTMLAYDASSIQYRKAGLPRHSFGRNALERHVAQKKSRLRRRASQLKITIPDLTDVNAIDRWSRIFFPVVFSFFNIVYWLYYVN
Chain of α1Q241L mutated GABAARs (P18507 40-475): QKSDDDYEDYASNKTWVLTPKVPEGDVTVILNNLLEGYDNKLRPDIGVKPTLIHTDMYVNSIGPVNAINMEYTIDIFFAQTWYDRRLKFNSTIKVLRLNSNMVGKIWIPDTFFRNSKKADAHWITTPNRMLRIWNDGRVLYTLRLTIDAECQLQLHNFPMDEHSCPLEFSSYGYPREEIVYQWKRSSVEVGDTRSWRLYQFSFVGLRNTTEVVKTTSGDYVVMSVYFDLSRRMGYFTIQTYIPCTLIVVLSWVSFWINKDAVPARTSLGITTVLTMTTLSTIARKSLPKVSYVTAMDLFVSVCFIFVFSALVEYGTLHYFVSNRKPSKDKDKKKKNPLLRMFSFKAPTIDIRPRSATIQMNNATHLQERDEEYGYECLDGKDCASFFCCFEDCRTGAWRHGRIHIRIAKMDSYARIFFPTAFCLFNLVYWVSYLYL

Compound | Effect of the α1 Q241L mutation on potentiation of GABA current (α1Q241L mutated GABAARs) | Action on closed NMDAR channels (pre-application in the absence of agonist) (NMDAR; 2.5 μM MQ-221, 300 μM 3α5βPS) | Inhibition of NMDAR function in the presence of agonist (co-application) (NMDAR; 300 μM 3α5βPS)
CC(=O)[C@H]1CC[C@H]2[C@@H]3CC[C@H]4C[C@H](O)CC[C@]4(C)[C@H]3CC[C@]12C [allopregnanolone, reference compound] | elimination of allopregnanolone (AlloP) potentiation |  | 
pregnanolone sulfate [reference compound] |  | little effect on closed channels | strongly inhibited

Source: patent US20220396597A1 (priority 2019, published 2022)
